The source of these data is PubChem BioAssay (NCI).

Some test systems named below: MCF7 breast; NCI-H522 lung; RXF 393 renal; RPMI-8226 leukemia; COLO 205 colon; HCC-2998 colon; IGROV1 ovarian; NCI-H460 lung; HCT-116 colon; SK-MEL-2 melanoma.
Holding throughout (test): NCI-60 cell line screen, 48 h

The structures appear in SMILES notation.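 1) Cells in 96-well plates. 2) Compound, 48 h, 5 concentrations. 3) Linear interpolation between surrounding doses. 4) Unreached endpoint = highest concentration. GI50 = concentration required for 50% inhibition of growth. TGI: concentration producing complete growth inhibition.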

Consider `O=c1c(Oc2ccc(F)cc2F)cc2cnc(NC3CCOCC3)nc2n1C1CC1`, for which the GI50 in the assay with MCF7 breast is greater than 25 µM; in the assay on NCI-H522 lung, greater than 25 µM; in the assay on RXF 393 renal, greater than 17.1 µM; in the assay on RPMI-8226 leukemia it was greater than 25 µM; in the assay on COLO 205 colon, greater than 25 µM; in the assay with HCC-2998 colon, greater than 25 µM. For the same compound, the GI50 in the assay with IGROV1 ovarian, in the assay on NCI-H460 lung, in the assay with HCT-116 colon and with SK-MEL-2 melanoma was greater than 25 µM in each case. The TGI with MCF7 breast, in the assay on NCI-H522 lung, in the assay with RXF 393 renal, in the assay on RPMI-8226 leukemia, in the assay with COLO 205 colon and in the assay on HCC-2998 colon was greater than 25 µM in each case. For the same compound, the TGI in the assay with IGROV1 ovarian, with NCI-H460 lung, in the assay with HCT-116 colon and in the assay on SK-MEL-2 melanoma was greater than 25 µM throughout.
For the compound `COc1cc2c3c(n(CCCN)c(=O)c2cc1OC)-c1ccc(N)cc1C3=O`, the GI50 with MCF7 breast was 1.66 µM; with NCI-H522 lung, 0.78 µM; with RXF 393 renal, 1.07 µM; with RPMI-8226 leukemia, 19.5 µM; in the assay on COLO 205 colon it was 0.554 µM; with HCC-2998 colon, 0.806 µM. The GI50 is 1.43 µM in the assay on IGROV1 ovarian, 4.52 µM with NCI-H460 lung, 0.339 µM in the assay on HCT-116 colon and 7.77 µM in the assay with SK-MEL-2 melanoma. Moreover, the TGI was greater than 38.2 µM with MCF7 breast; 16.7 µM in the assay with NCI-H522 lung; 7.22 µM in the assay on RXF 393 renal; 49.8 µM with RPMI-8226 leukemia; 10.2 µM with COLO 205 colon; 6 µM in the assay with HCC-2998 colon. Moreover, the TGI with IGROV1 ovarian is greater than 50.4 µM; with NCI-H460 lung, 16.8 µM; with HCT-116 colon, 1.35 µM; in the assay on SK-MEL-2 melanoma it was 29.8 µM.
With `OC[C@H]1C[C@](O)(c2ccc(F)cc2)[C@@H](c2ccc(F)cc2)O1`, the GI50 in the assay with MCF7 breast was greater than 100 µM; in the assay on NCI-H522 lung it was greater than 100 µM; with RXF 393 renal, 52.7 µM; in the assay on RPMI-8226 leukemia, greater than 100 µM; with COLO 205 colon, greater than 100 µM; in the assay with HCC-2998 colon, greater than 100 µM. Moreover, the GI50 in the assay on IGROV1 ovarian is 58.3 µM; in the assay with NCI-H460 lung, greater than 100 µM; with HCT-116 colon it was 90.5 µM. Further, the TGI in the assay with MCF7 breast, in the assay on NCI-H522 lung, in the assay with RXF 393 renal, in the assay on RPMI-8226 leukemia, in the assay with COLO 205 colon and in the assay on HCC-2998 colon was greater than 100 µM in each case. Further, the TGI in the assay on IGROV1 ovarian, with NCI-H460 lung and in the assay with HCT-116 colon was greater than 100 µM in each case.
Regarding `O=C(NO)c1ccc(CNc2cccc3nc(C4CC4)n(-c4ccccc4)c(=O)c23)cc1`, the GI50 is 3.35 µM in the assay with MCF7 breast; 1.47 µM with NCI-H522 lung; 1.42 µM in the assay on RXF 393 renal; 2.69 µM in the assay on RPMI-8226 leukemia; 2.22 µM with COLO 205 colon; 1.81 µM in the assay with HCC-2998 colon. Besides, the GI50 in the assay with IGROV1 ovarian was 1.44 µM; in the assay with NCI-H460 lung, 1.9 µM; in the assay on SK-MEL-2 melanoma, 2.76 µM. In addition, the TGI with MCF7 breast was 18 µM; in the assay with NCI-H522 lung it was 3.38 µM; in the assay on RXF 393 renal, 3.14 µM; in the assay with RPMI-8226 leukemia, 11.3 µM; with COLO 205 colon it was 5.59 µM; with HCC-2998 colon, 3.44 µM. Moreover, the results for the TGI in the assay on IGROV1 ovarian, in the assay with NCI-H460 lung and in the assay with SK-MEL-2 melanoma were 3.01 µM, 5.65 µM and 7.45 µM, respectively.
`COc1ccc(-n2c(=O)c3ccccc3n(Cc3ccc(C(=O)NO)cc3)c2=O)cc1`: the GI50 with MCF7 breast is 2.68 µM; in the assay on NCI-H522 lung, 1.45 µM; in the assay on RXF 393 renal it was 1.49 µM; in the assay on RPMI-8226 leukemia it was 2.42 µM; in the assay on COLO 205 colon it was 1.75 µM; in the assay with HCC-2998 colon, 1.81 µM. The GI50 in the assay on NCI-H460 lung is 2.58 µM; with HCT-116 colon, 1.78 µM; in the assay on SK-MEL-2 melanoma, 2.31 µM. For the same compound, the TGI with MCF7 breast is 76.4 µM; in the assay on NCI-H522 lung, 4.07 µM; in the assay with RXF 393 renal it was 3.34 µM; in the assay with RPMI-8226 leukemia it was 12.6 µM; in the assay on COLO 205 colon it was 4.22 µM; in the assay on HCC-2998 colon, 3.58 µM. For the same compound, the TGI with NCI-H460 lung amounted to 12.9 µM; in the assay with HCT-116 colon, 4.16 µM; in the assay with SK-MEL-2 melanoma, 7.13 µM.
Turning to `O=C1C[C@@H]2OCC=C3C[N+]4([O-])CC[C@]56c7ccccc7N1[C@H]5[C@H]2[C@H]3C[C@@H]64` (stereo partly drawn), the GI50 in the assay with MCF7 breast, with NCI-H522 lung, in the assay on RXF 393 renal, in the assay on RPMI-8226 leukemia, in the assay on COLO 205 colon and with HCC-2998 colon was greater than 100 µM in each case. For the same compound, the GI50 with IGROV1 ovarian, in the assay on NCI-H460 lung and in the assay with HCT-116 colon was greater than 100 µM throughout. Further, the TGI in the assay with MCF7 breast, in the assay on NCI-H522 lung, with RXF 393 renal, in the assay on RPMI-8226 leukemia, in the assay with COLO 205 colon and with HCC-2998 colon was greater than 100 µM in each case. The TGI in the assay with IGROV1 ovarian, in the assay on NCI-H460 lung and in the assay on HCT-116 colon was greater than 100 µM each time.
As to `O=C1c2ccccc2-c2c1c1c(O)cccc1n2Cc1ccccc1`, the GI50 is 6.75 µM in the assay on MCF7 breast; 40 µM with NCI-H522 lung; 11.5 µM with RXF 393 renal; 30 µM in the assay on RPMI-8226 leukemia; 47.4 µM in the assay on COLO 205 colon; 12.7 µM in the assay on HCC-2998 colon. The values for the GI50 in the assay on NCI-H460 lung, in the assay with HCT-116 colon and in the assay on SK-MEL-2 melanoma were 10.3 µM, 11.8 µM and 39.7 µM, respectively. Further, the TGI with MCF7 breast is 30.8 µM; with NCI-H522 lung it was greater than 100 µM; with RXF 393 renal it was 44.8 µM; with RPMI-8226 leukemia, greater than 100 µM; in the assay on COLO 205 colon, greater than 100 µM; in the assay with HCC-2998 colon it was 39.1 µM. In addition, the TGI in the assay on NCI-H460 lung was 45.6 µM; with HCT-116 colon, greater than 100 µM; with SK-MEL-2 melanoma, greater than 100 µM.
For the compound `CCCCCCCCCCN=C(N)c1ccc(N2CCN(c3ccc(C(N)=NCCCCCCCCCC)cc3)CC2)cc1`, the GI50 in the assay with MCF7 breast is 1.55 µM; with NCI-H522 lung, 3.75 µM; in the assay on RXF 393 renal, 6.82 µM; in the assay on RPMI-8226 leukemia it was 1.96 µM; in the assay with COLO 205 colon, 3.93 µM; in the assay with HCC-2998 colon, 3.51 µM. Also, the values for the GI50 with IGROV1 ovarian, in the assay on NCI-H460 lung and in the assay with SK-MEL-2 melanoma were 2.83 µM, 1.97 µM and 7.74 µM, respectively. Moreover, the TGI with MCF7 breast is greater than 50 µM; in the assay with NCI-H522 lung, greater than 50 µM; in the assay with RXF 393 renal it was 36.1 µM; in the assay on RPMI-8226 leukemia it was greater than 50 µM; in the assay on COLO 205 colon, 15.7 µM; with HCC-2998 colon it was greater than 50 µM. The TGI with IGROV1 ovarian, in the assay with NCI-H460 lung and in the assay with SK-MEL-2 melanoma was greater than 50 µM each time.
